Here are results for 15 molecules from ChEMBL document CHEMBL4627302, “Design, synthesis and anticancer activities of novel dual poly(ADP-ribose) polymerase-1/histone deacetylase-1 inhibitors” (Bioorg Med Chem Lett, 2020).

Assay [1] has as its system MDA-MB-231. Kind of assay: Antiproliferative activity against human MDA-MB-231 cells assessed as cell growth inhibition by MTT assay. Type of assay: functional.
The test system of assay [2] is MCF7. Kind of assay: Antiproliferative activity against human MCF7 cells assessed as cell growth inhibition by MTT assay. Type of assay: functional.
Assay [3] deals with T1, Poly [ADP-ribose] polymerase 1 (Homo sapiens, UniProt P09874). Briefly: Inhibition of PARP1 (unknown origin) at 20 nM relative to control.
Assay [4] addresses Histone deacetylase 1 (Homo sapiens, UniProt Q13547). Briefly: Inhibition of HDAC1 (unknown origin).
Assay [5] deals with K562. Kind of assay: Antiproliferative activity against human K562 cells assessed as cell growth inhibition by MTT assay. Type of assay: functional.
Assay [6] deals with T1, Poly [ADP-ribose] polymerase 1. Briefly: Inhibition of PARP1 (unknown origin).
Assay [7] shares this target. Kind of assay: Potency index, ratio of olaparib IC50 to test compound IC50 for inhibition of PARP1 (unknown origin).

Activity calls are given as the source filed them. The rule behind the calls is not given here.

Histone deacetylase 1, sequence (Q13547 whole entry): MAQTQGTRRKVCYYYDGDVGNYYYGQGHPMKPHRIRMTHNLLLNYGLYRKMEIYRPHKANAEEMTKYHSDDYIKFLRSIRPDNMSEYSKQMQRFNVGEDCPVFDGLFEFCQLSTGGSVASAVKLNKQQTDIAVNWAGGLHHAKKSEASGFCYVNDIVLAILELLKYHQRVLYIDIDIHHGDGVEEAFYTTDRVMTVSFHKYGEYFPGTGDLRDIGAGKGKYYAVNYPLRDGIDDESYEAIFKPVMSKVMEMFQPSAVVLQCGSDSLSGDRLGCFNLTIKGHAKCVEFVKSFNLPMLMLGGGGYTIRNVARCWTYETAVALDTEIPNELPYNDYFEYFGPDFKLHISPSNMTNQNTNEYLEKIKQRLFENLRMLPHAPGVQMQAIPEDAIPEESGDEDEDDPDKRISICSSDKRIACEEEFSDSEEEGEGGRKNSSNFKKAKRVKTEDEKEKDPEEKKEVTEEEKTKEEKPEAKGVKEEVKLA
T1 sequence (P09874 whole entry): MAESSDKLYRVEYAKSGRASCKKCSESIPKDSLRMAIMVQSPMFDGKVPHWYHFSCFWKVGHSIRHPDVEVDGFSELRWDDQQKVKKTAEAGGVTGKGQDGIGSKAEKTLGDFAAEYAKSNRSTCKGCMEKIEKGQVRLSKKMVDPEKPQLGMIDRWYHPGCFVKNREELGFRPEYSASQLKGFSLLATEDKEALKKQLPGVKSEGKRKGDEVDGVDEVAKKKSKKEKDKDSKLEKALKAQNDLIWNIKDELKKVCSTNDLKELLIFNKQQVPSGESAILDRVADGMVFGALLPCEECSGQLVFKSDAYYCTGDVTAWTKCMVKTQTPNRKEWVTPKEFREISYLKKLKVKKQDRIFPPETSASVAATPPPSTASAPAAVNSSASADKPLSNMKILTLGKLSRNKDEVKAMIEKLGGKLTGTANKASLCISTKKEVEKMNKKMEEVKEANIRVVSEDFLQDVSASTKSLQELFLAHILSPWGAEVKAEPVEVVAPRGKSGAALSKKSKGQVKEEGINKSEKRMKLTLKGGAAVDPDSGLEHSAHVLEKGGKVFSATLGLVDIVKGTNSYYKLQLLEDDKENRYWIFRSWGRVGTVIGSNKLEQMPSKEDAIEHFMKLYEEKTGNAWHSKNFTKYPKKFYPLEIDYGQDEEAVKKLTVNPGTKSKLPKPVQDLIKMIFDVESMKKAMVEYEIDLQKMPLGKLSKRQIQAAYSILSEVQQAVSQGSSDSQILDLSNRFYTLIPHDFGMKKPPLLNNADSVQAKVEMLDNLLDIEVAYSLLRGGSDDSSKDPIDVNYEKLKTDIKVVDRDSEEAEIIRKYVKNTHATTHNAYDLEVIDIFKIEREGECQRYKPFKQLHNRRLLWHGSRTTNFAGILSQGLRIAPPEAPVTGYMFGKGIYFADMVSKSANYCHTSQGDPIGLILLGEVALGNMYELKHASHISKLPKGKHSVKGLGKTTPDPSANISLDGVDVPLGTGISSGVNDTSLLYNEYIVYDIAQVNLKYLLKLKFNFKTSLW

For the molecule `Nc1cc(F)ccc1NC(=O)CCCCNC(=O)c1cc(Cc2n[nH]c(=O)c3ccccc23)ccc1F`, in assay [1], the GI50 worked out at 25400 nM. Further, the GI50 result in assay [2] is “inactive”. Besides, in assay [3], the inhibition stood at 64.7%. In addition, the IC50 in assay [4] (read-out: IC50) was 1000 nM.

As for `Nc1ccc(F)cc1NC(=O)c1ccc(CNC(=O)/C=C/c2cccnc2)cc1`, the GI50 was 2880 nM in assay [1], 1430 nM in assay [2] and 450 nM in assay [5]. Also, the IC50 entry in assay [6] is recorded as “Not Active”.

With `Nc1ccc(F)cc1NC(=O)CCCCNC(=O)c1cc(Cc2n[nH]c(=O)c3ccccc23)ccc1F`, the GI50 in assay [1] was found to be 31300 nM. The GI50 result in assay [2] and in assay [5] was “inactive” throughout. Further, in assay [3], the inhibition came out at 42.4%. Moreover, in assay [4] (read-out: IC50), the IC50 turned out to be 910 nM.

With `Nc1ccccc1NC(=O)C1CCN(C(=O)c2cc(Cc3n[nH]c(=O)c4ccccc34)ccc2F)CC1`, the GI50 in assay [1] came out at 2310 nM. Moreover, the GI50 entry in assay [2] and in assay [5] was “inactive” each time. In addition, the Ratio IC50 in assay [7] stood at 2. For the same molecule, the IC50 in assay [6] (read-out: IC50) amounted to 1.94 nM; in assay [4] (read-out: IC50), 820 nM.

In the case of `Nc1cc(F)ccc1NC(=O)[C@H]1CC[C@H](CNC(=O)c2cc(Cc3n[nH]c(=O)c4ccccc34)ccc2F)CC1`, the GI50 in assay [1] worked out at 49200 nM; in assay [5] it was 6610 nM. Also, the GI50 result in assay [2] was “inactive”. This molecule also displayed an inhibition in assay [3] of 49.7%. Moreover, in assay [4] (read-out: IC50), the IC50 was 890 nM.

As for `Nc1ccccc1NC(=O)CCCCNC(=O)c1cc(Cc2n[nH]c(=O)c3ccccc23)ccc1F`, the GI50 in assay [1] was 61600 nM; in assay [5], 62400 nM. For the same molecule, in assay [2], the GI50 entry was “inactive”. Further, the inhibition in assay [3] was 39.4%. For the same molecule, the IC50 in assay [4] (read-out: IC50) was determined as 740 nM.

In the case of `Nc1ccccc1NC(=O)[C@H]1CC[C@H](CNC(=O)c2cc(Cc3n[nH]c(=O)c4ccccc34)ccc2F)CC1`, the GI50 in assay [1] was found to be 50400 nM; in assay [2], 11100 nM; in assay [5], 2920 nM. Besides, in assay [3], the inhibition was 41.3%. Further, the IC50 in assay [4] (read-out: IC50) was found to be 340 nM.

Take `Nc1cc(F)ccc1NC(=O)CCCCCNC(=O)c1cc(Cc2n[nH]c(=O)c3ccccc23)ccc1F`: the GI50 was 40500 nM in assay [1] and 14700 nM in assay [5]. The GI50 entry in assay [2] was “inactive”. The molecule also gave an inhibition in assay [3] of 46.2%. Further, the IC50 in assay [4] (read-out: IC50) came out at 810 nM.

For `Nc1ccccc1NC(=O)CCCCCNC(=O)c1cc(Cc2n[nH]c(=O)c3ccccc23)ccc1F`, the GI50 was determined as 4350 nM in assay [1] and 5620 nM in assay [5]. In addition, the GI50 result in assay [2] was “inactive”. Further, the IC50 amounted to 4.23 nM in assay [6] (read-out: IC50) and 340 nM in assay [4] (read-out: IC50).

Consider `Nc1cc(F)ccc1NC(=O)C1CCN(C(=O)c2cc(Cc3n[nH]c(=O)c4ccccc34)ccc2F)CC1`, for which the GI50 in assay [1] amounted to 4490 nM. Besides, the GI50 entry in assay [2] and in assay [5] was “inactive” throughout. The IC50 in assay [6] (read-out: IC50) was determined as 2.58 nM; in assay [4] (read-out: IC50), 940 nM.

Take `O=C(c1cc(Cc2n[nH]c(=O)c3ccccc23)ccc1F)N1CCN(C(=O)C2CC2)CC1` [OLAPARIB]: the figures for the GI50 in assay [1] and in assay [2] were 4230 nM and 13200 nM, respectively. Moreover, the GI50 entry in assay [5] is “inactive”. The concentration for half-maximal inhibition (IC50) entry in assay [4] is listed as “Not Active”.

As for `Nc1ccc(F)cc1NC(=O)C1CCN(C(=O)c2cc(Cc3n[nH]c(=O)c4ccccc34)ccc2F)CC1`, the GI50 in assay [1] stood at 1030 nM. Also, the GI50 entry in assay [2] and in assay [5] was “inactive” throughout. Further, the IC50 in assay [6] (read-out: IC50) was found to be 1.81 nM; in assay [4] (read-out: IC50), 950 nM.

In the case of `Nc1ccc(F)cc1NC(=O)CCCCCNC(=O)c1cc(Cc2n[nH]c(=O)c3ccccc23)ccc1F`, the GI50 in assay [1] was found to be 13900 nM; in assay [5], 8130 nM. For the same molecule, in assay [2], the GI50 entry was “inactive”. Moreover, in assay [3], the inhibition was determined as 65.9%. Further, in assay [4] (read-out: IC50), the IC50 was 520 nM.

In the case of `Nc1cc(F)ccc1NC(=O)c1ccc(CNC(=O)c2cc(Cc3n[nH]c(=O)c4ccccc34)ccc2F)cc1`, the GI50 in assay [1] amounted to 78700 nM; in assay [2], 11500 nM; in assay [5] it was 2210 nM. Moreover, the inhibition in assay [3] is 22.1%. For the same molecule, the IC50 in assay [4] (read-out: IC50) stood at 340 nM.

As for `Nc1ccccc1NC(=O)c1ccc(CNC(=O)c2cc(Cc3n[nH]c(=O)c4ccccc34)ccc2F)cc1`, the GI50 in assay [1] worked out at 59300 nM; in assay [2], 1910 nM; in assay [5], 408 nM. This molecule also registered an inhibition in assay [3] of 37.4%. Moreover, the IC50 in assay [4] (read-out: IC50) is 140 nM.
